The values below come from US9011853B2, “B7-H4 fusion proteins and methods of use thereof” (Amplimmune, Inc., priority 2009, dated 2015).

This assay relates to CD4^+CD62L^+ naïve T cells. Briefly: Mouse Th17 assay, IL-17A ELISA. It is filed as cell-based. Here is the method:
CD4^+CD62L^+ naïve T cells were isolated from BALB/c mice as in the above examples, and activated by anti-CD3 and anti-CD28 bound beads in the presence of Th17 differntiation cocktail (TGF-β1 (10 ng/mL), IL-6 (50 ng/mL), IL-23 (4 ng/mL), anti-IL-4 (10 μg/mL), anti-IFN-γ (5 μg/mL) and anti-IL-2 (5 μg/mL)). Murine B7-H4-Ig (10 μg/mL) or retinoic acid (RA) (10 μM) was added to the cultures on day 0, day 1, or day 2 of the 4 day culture. IL-17A levels were measured by ELISA at the end of the 4 day culture.
The Th17 assay is 4 days in duration. In order to determine when B7-H4-Ig is acting, the Th17 assay was performed with the addition of 10 μg/mL of murine B7-H4-Ig, 10 μg/mL of mouse IgG control, or […] retinoic acid on Day 0, Day 1, or Day 2.
Peripheral T cells were obtained from spleens and inguinal lymph nodes of 6-9 week old BALB/c mice by mechanical disruption through a cell strainer followed by red blood cell (RBC) lysis.
Naïve helper T cells (CD4^+CD62L^+) were obtained using the Miltenyi Biotec microbead system. CD4^+ cells are enriched by negative selection, and followed by a positive selection of CD62L^+. In some experiments CD25+ cells were also depleted.
After selection, cells are activated in vitro with anti-CD3/CD28 beads at a 1:1 cell:bead ratio in the presence of the TH17 differentiation cocktail (TGF-β1 (10 ng/ml), IL-6 (50 ng/ml), IL-23 (4 ng/ml), anti-IL-2 (5 μg/ml), anti-IL-4 (10 μg/ml), and anti-IFN-γ (5 μg/ml)). Murine B7-H4-Ig is added at a final concentration of 1.25-20 μg/ml. Retinoic acid (RA) is used as positive control and mouse IgG is used as a negative control.
After 4 days of culture, cultures are spun down and supernatants are harvested and stored at <−65° C. until analyzed for IL-17A levels by ELISA.
(In an ELISA, binding on a coated surface is turned into a signal by an enzyme label.)

Regarding `CC1=C(/C=C/C(C)=C/C=C/C(C)=C/C(=O)O)C(C)(C)CCC1` [RA, All trans-Retinoic Acid], the “IL-17A expression (ELISA, day 4)” value (Th17 promoting conditions, relative to control mouse IgG (FIG. 56)) is “reduced IL-17A expression”. The “IL-17A inhibition by time of addition” value (murine B7-H4-Ig 10 μg/mL or RA 10 μM (b737 prints 10 mM) added day 0, day 1 or day 2 of 4 day culture (FIG. 53)) is recorded as “inhibited IL-17A most potently when added at the beginning of the assay (day 0)”.
